# In article PMC9230590, “Pharmacokinetics and Tissue Distribution of Enavogliflozin in Mice and Rats” (Pharmaceutics, 2022):
# Where two headings read alike, the source gives them in different places.
# How the values were obtained:
# [1] = Pharmacokinetics after intravenous injection in rats; type: in vivo, Sprague Dawley (SD) rats; conditions: for AUC∞/D / Co/D: dose normalized; for Co / half-life / MRT / clearance / Vd / AUC(0-inf) / AUC(0-t): plasma; for half-life / MRT / clearance / Vd / AUC(0-inf) / AUC(0-t): rat; for half-life / MRT: incomplete elimination phase; for Vd: read-out: Vd,ss
# Experimental: Twelve rats were randomly divided into three groups (n = 4 per each group) and injected with an enavogliflozin solution at doses of 0.3, 1, and 3 mg/kg. The drug was dissolved in a mixture of 10% DMSO and 90% saline and administered intravenously via the tail vein. Before blood sampling, rats were anesthetized using 2% isoflurane in a vaporizer with an oxygen flow of 0.8 L/min, for 5 min. Blood samples (approximately 100 µL) were collected at 0, 0.05, 0.33, 0.67, 1, 2, 4, 6, and 8 h via the jugular vein under isoflurane anesthesia using a heparin-treated 1 mL syringe (Jung Lim Co. Ltd., Jincheon, Korea). Samples were centrifuged at 12,000× g for 1 min to separate the plasma. An aliquot (30 µL) of each plasma sample was stored at −80 °C until analysis.
# (§1) Concentrations of enavogliflozin in plasma and tissue homogenate samples were analyzed using an Agilent 6430 triple quadrupole liquid chromatography-mass spectrometry (LC–MS/MS) system (Agilent, Wilmington, DE, USA) following a previously published method.
# (§2) The data were expressed as the means ± standard deviation for the groups. Pharmacokinetic parameters, such as the area under the plasma concentration–time curve during the period of observation (AUClast), AUC to infinite time (AUC∞), clearance (CL), and volume of distribution at steady-state (Vd,ss), the terminal half-life (t1/2), and mean residence time (MRT) were calculated using non-compartment analysis with WinNonlin software (version 5.1; Pharsights, Cary, NC, USA). The AUC ratios were calculated by dividing the AUClast of enavogliflozin in the tissue samples by the plasma AUClast values of enavogliflozin [15].
# [2] = Tissue distribution after single oral administration in mice; type: in vivo, ICR mice; conditions: single oral 1 mg/kg; for half-life: read-out: T1/2 (elimination half-life) (converted); for AUC Ratio (AUC24 h, tissue / AUC24 h, plasma): 1 mg/kg
# Experimental: Thirty-six ICR mice were fasted with water ad libitum for at least 12 h before oral administration of enavogliflozin and randomly divided into six groups (n = 6 per each sampling time point) and administered with an enavogliflozin solution at a dose of 1 mg/kg via oral gavage. Blood samples (approximately 0.2 mL) were collected at 0.5, 1, 2, 4, 8, 24 h via the abdominal artery. Subsequently, whole tissues, including stomach, small intestine, large intestine, liver, kidney, brain, heart, lung, spleen, and testis, were isolated. Blood samples were centrifuged at 12,000× g for 1 min to separate plasma. Tissue samples were minced thoroughly and homogenized with four volumes of saline using a tissue grinder. An aliquot (30 µL) of plasma and aliquots (50 µL) of tissue homogenate samples were stored at −80 °C until analysis.
# as §1, §2
# [3] = system: SGLT1; parameters: method as in PMID 32183468; conditions: cited from earlier work
# [4] = parameters: method as in PMID 32183468; conditions: mice; cited from earlier work
# [5] = system: hepatocytes; parameters: method as in PMID 32932946; conditions: rat hepatocytes; cited from earlier work
# [6] = system: hepatocytes; parameters: method as in PMID 32932946; conditions: dog hepatocytes; cited from earlier work
# [7] = system: hepatocytes; parameters: method as in PMID 32932946; conditions: monkey hepatocytes; cited from earlier work
# [8] = system: hepatocytes; parameters: method as in PMID 32932946; conditions: human cells (hepatocytes); cited from earlier work
# [9] = system: urinary glucose excretion; parameters: method as in PMID 35395697; conditions: single oral administration, dose range 0.2 to 5.0 mg, healthy male volunteers; cited from earlier work
smiles,measurement,setting,value
"OC[C@H]1O[C@@H](c2cc(Cc3ccc(C4CC4)cc3)c(Cl)c3c2CCO3)[C@H](O)[C@@H](O)[C@@H]1O [enavogliflozin, (2S,3R,4R,5S,6R)-2-(7-chloro-6-(4-cyclopropylbenzyl) -2,3-dihydrobenzofuran-4-yl)-6-(hydroxymethyl)tetrahydro-2H-pyran-3,4,5-triol]",AUC∞/D,[1]; IV 0.3 mg/kg,2831.6 ± 359.0
same,Co/D,[1]; IV 0.3 mg/kg,4231.2 ± 1720.0
same,Co,[1]; IV 0.3 mg/kg,1269.4 ± 516.0 ng/mL
same,AUC∞/D,[1]; IV 1 mg/kg,2798.6 ± 551.4
same,Co/D,[1]; IV 1 mg/kg,3956.4 ± 1028.2
same,Co,[1]; IV 1 mg/kg,3956.4 ± 1028.2 ng/mL
same,AUC∞/D,[1]; IV 3 mg/kg,2462.4 ± 429.3
same,Co/D,[1]; IV 3 mg/kg,3419.4 ± 1364.8
same,Co,[1]; IV 3 mg/kg,"10,258.1 ± 4094.5 ng/mL"
same,plasma concentrations at 24 h,"[1]; IV 0.3, 1, and 3 mg/kg groups",below the detection limit
same,half-life,"[1]; Sprague Dawley, IV 0.3 mg/kg",2.6 ± 0.4 h
same,half-life,"[1]; Sprague Dawley, IV 1 mg/kg",2.9 ± 0.4 h
same,half-life,"[1]; Sprague Dawley, IV 3 mg/kg",4.3 ± 0.6 h
same,MRT,"[1]; Sprague Dawley, IV 0.3 mg/kg",2.5 ± 0.4 h
same,clearance,"[1]; Sprague Dawley, IV 0.3 mg/kg, read-out: CL",6 ± 0.8 mL/min/kg
same,Vd,"[1]; Sprague Dawley, IV 0.3 mg/kg",0.9 ± 0.2 L/kg
same,MRT,"[1]; Sprague Dawley, IV 1 mg/kg",2.9 ± 0.4 h
same,clearance,"[1]; Sprague Dawley, IV 1 mg/kg, read-out: CL",6.2 ± 1.4 mL/min/kg
same,Vd,"[1]; Sprague Dawley, IV 1 mg/kg",1.1 ± 0.1 L/kg
same,MRT,"[1]; Sprague Dawley, IV 3 mg/kg",5.1 ± 1.1 h
same,clearance,"[1]; Sprague Dawley, IV 3 mg/kg, read-out: CL",6.9 ± 1.2 mL/min/kg
same,Vd,"[1]; Sprague Dawley, IV 3 mg/kg",2.1 ± 0.4 L/kg
same,AUC(0-inf),"[1]; Sprague-Dawley, IV 0.3 mg/kg",850 ± 108 ng·h/mL
same,AUC(0-t),"[1]; Sprague-Dawley, IV 0.3 mg/kg",784 ± 94.4 ng·h/mL
same,AUC(0-inf),"[1]; Sprague-Dawley, IV 1 mg/kg",2800 ± 551 ng·h/mL
same,AUC(0-t),"[1]; Sprague-Dawley, IV 1 mg/kg",2510 ± 447 ng·h/mL
same,AUC(0-inf),"[1]; Sprague-Dawley, IV 3 mg/kg",7390 ± 1290 ng·h/mL
same,AUC(0-t),"[1]; Sprague-Dawley, IV 3 mg/kg",5610 ± 751 ng·h/mL
same,clearance,"[1]; Sprague-Dawley, IV 0.3–3 mg/kg, all doses together, read-out: Systemic clearance",6.35 ± 1.14 mL/min/kg
same,Kp,"[2]; male, ICR, mouse, kidney (versus plasma), kidney, read-out: AUC Ratio (AUC24 h, tissue / AUC24 h, plasma)",41.9
same,Kp,"[2]; male, ICR, mouse, kidney and intestinal tract (versus plasma), read-out: AUC ratio of kidney and intestinal tract compared with plasma",> 10
same,Kp,"[2]; male, ICR, mouse, large intestine (versus plasma), range over stomach, small and large intestine, read-out: plasma AUC ratio, gastrointestinal tract",8.5 to 12.1
same,Kp,"[2]; male, ICR, mouse, liver (versus plasma), liver, read-out: AUC Ratio (AUC24 h, tissue / AUC24 h, plasma)",5.8
same,Kp,"[2]; male, ICR, mouse, heart, read-out: AUC Ratio (AUC24 h, tissue / AUC24 h, plasma)",1.7 ± 0.2
same,half-life,"[2]; male, ICR, mouse, heart",3.6 h
same,half-life,"[2]; male, ICR, mouse, kidney",29 h
same,Kp,"[2]; male, ICR, mouse, large intestine, read-out: AUC Ratio (AUC24 h, tissue / AUC24 h, plasma)",8.5 ± 4.5
same,half-life,"[2]; male, ICR, mouse, large intestine",3.4 h
same,half-life,"[2]; male, ICR, mouse, liver",4.4 h
same,Kp,"[2]; male, ICR, mouse, lung, read-out: AUC Ratio (AUC24 h, tissue / AUC24 h, plasma)",2 ± 0.2
same,half-life,"[2]; male, ICR, mouse, lung",9.6 h
same,AUC(0-t),"[2]; male, ICR, mouse, plasma, read-out: AUC24 h",1360 ± 260 ng·h/mL
same,half-life,"[2]; male, ICR, mouse, plasma",3.7 h
same,Kp,"[2]; male, ICR, mouse, small intestine, read-out: AUC Ratio (AUC24 h, tissue / AUC24 h, plasma)",10.8 ± 3
same,half-life,"[2]; male, ICR, mouse, small intestine",2.6 h
same,Kp,"[2]; male, ICR, mouse, spleen, read-out: AUC Ratio (AUC24 h, tissue / AUC24 h, plasma)",0.4
same,half-life,"[2]; male, ICR, mouse, spleen",2.7 h
same,Kp,"[2]; male, ICR, mouse, stomach, read-out: AUC Ratio (AUC24 h, tissue / AUC24 h, plasma)",12.1 ± 7
same,half-life,"[2]; male, ICR, mouse, stomach",3.4 h
same,Kp,"[2]; male, ICR, mouse, testis, read-out: AUC Ratio (AUC24 h, tissue / AUC24 h, plasma)",0.5 ± 0.1
same,half-life,"[2]; male, ICR, mouse, testis",22 h
same,Kp,"[2]; male, ICR, mouse, versus plasma, read-out: AUC ratio in stomach, small intestine, large intestine, liver",> 5
same,Concentration in brain tissue,[2]; brain,not detected
same,AUC24 h,[2]; heart,2.19 ± 0.35 µg·h/g
same,K (elimination constant),[2]; heart,0.194 h⁻¹
same,AUC24 h,[2]; kidney,54.5 ± 3.5 µg·h/g
same,K (elimination constant),[2]; kidney,0.024 h⁻¹
same,"AUC Ratio (AUC24 h, tissue / AUC24 h, plasma)",[2]; kidney,41.9 ± 7.7
same,AUC24 h,[2]; large intestine,11.1 ± 4.3 µg·h/g
same,K (elimination constant),[2]; large intestine,0.204 h⁻¹
same,AUC24 h,[2]; liver,8.08 ± 1.1 µg·h/g
same,K (elimination constant),[2]; liver,0.159 h⁻¹
same,"AUC Ratio (AUC24 h, tissue / AUC24 h, plasma)",[2]; liver,5.8 ± 0.4
same,AUC24 h,[2]; lung,3.04 ± 0.29 µg·h/g
same,K (elimination constant),[2]; lung,0.072 h⁻¹
same,K (elimination constant),[2]; plasma,0.185 h⁻¹
same,AUC24 h,[2]; small intestine,14.2 ± 3.4 µg·h/g
same,K (elimination constant),[2]; small intestine,0.267 h⁻¹
same,AUC24 h,[2]; spleen,0.58 ± 0.11 µg·h/g
same,K (elimination constant),[2]; spleen,0.255 h⁻¹
same,AUC24 h,[2]; stomach,15.1 ± 6.4 µg·h/g
same,K (elimination constant),[2]; stomach,0.206 h⁻¹
same,AUC24 h,[2]; testis,0.95 ± 0.15 µg·h/g
same,K (elimination constant),[2]; testis,0.031 h⁻¹
same,IC50,[3],0.549 ± 0.14 µM
same,ratio of AUC in kidney to AUC in plasma,[4],85.0 ± 16.1
same,In vitro hepatic clearance,[5],8.3 mL/min/kg
same,In vitro hepatic clearance,[6],17.9 mL/min/kg
same,In vitro hepatic clearance,[7],18.5 mL/min/kg
same,In vitro hepatic clearance,[8],4.5 mL/min/kg
same,urinary glucose excretion,[9],dose-dependent increase
